The subject of data set [1] is CF human primary airway epithelial cells (CF hAEC). Description: Stimulation of chloride release (Cl efflux, SPQ fluorescence) in cystic fibrosis cells. The note with it: 10 μM; CF hAEC or non-CF (S9) cells. The class given is cell-based. On the procedure:
CF human primary airway epithelial cells (CF hAEC) on non-CF (S9) were cultured in the presence of compound 1 or azithromycin 10 μM. Cl efflux was monitored by fluorescence of [6-methoxy-N-(3-sulfopronyl)-quinolinium (SPQ).

Data set [2] can be described thus: Titration of macrolide with organic acid in saline. The class given is physicochemical. The note with it: for Vol. Added (mL) Score = 4: acid solution 10 mg/mL in saline added until fully dissolved; for End conc. macrolide: after titration. The method, then: After each addition, the mixture or solution was placed in the ultrasonic bath for 10 minutes followed by agitation for an additional 10 minutes. The mixtures were given a visual score depending on the presence of precipitate in the mixture (0 to 4, 0 being undissolved and 4 being fully-dissolved) and the pH of the supernatant fluid was measured.

A short description of data set [3]: Maximum solubility determination of organic salts in saline. It is filed as physicochemical. The note with it: for Visual Score: score 0 to 4. On the procedure:
The mixtures were given a visual score depending on the presence of precipitate in the mixture (Score ranges from 0 to 4, with 0 showing undissolved solid precipiate and 4 being fully-dissolved). Solubility of the salts was tested in 10 mM, 100 mM, 500 mM and 1M.

The mark [4] stands for this setting: macrolide (not named) + acid equivalent of organic acid in saline, 100 mM.
The mark [5] stands for this setting: macrolide (not named) + acid equivalent of organic acid in saline, 500 mM.
The mark [6] stands for this setting: macrolide (not named) + acid equivalent of organic acid in saline, 1M.

The structures appear in SMILES notation.

With `CC[C@H]1OC(=O)[C@H](C)[C@@H](O[C@H]2C[C@@](C)(OC)[C@@H](O)[C@H](C)O2)[C@H](C)[C@@H](O[C@@H]2O[C@H](C)C[C@H](N(C)C)[C@H]2O)[C@](C)(O)C[C@@H](C)CN(C)[C@H](C)[C@@H](O)[C@]1(C)O` [azithromycin], the “Cl efflux as determined by fluorescence change (SPQ)” value in data set [1] is given as “stimulate Cl efflux”.

`O=C(O)CC(=O)C(=O)O` [oxaloacetatic acid]: in data set [2] (10 mM COMPOUND 1 in saline), the “Amt acid added to dissolve” value is given as 4.00 mg, the “Amt corr. to mol eq.” value is 4.00 mg, the “mol. eq. acid (minimum mole equivalence of acid needed to dissolve)” value (“mol. eq. acid” for short) was 0.64 mol. eq and the “Vol. Added (mL) Score = 4” value was found to be 0.40 mL. The End conc. macrolide in data set [2] (COMPOUND 1 in saline) was 9.2 mM. The molecule further gave an End conc. macrolide in data set [2] (azithromycin in saline) of 8.7 mM. Also, in data set [2] (azithromycin, 10 mM in saline), the “Amt acid added to dissolve” value stood at 8.00 mg, the “Amt corr. to mol eq.” value is recorded as 8.00 mg, the “mol. eq. acid” value was found to be 1.10 mol. eq and the “Vol. Added (mL) Score = 4” value is 0.80 mL.

With `O=C(O)CCCCCCC(=O)O` [subaric acid], the “Amt acid added to dissolve” value in data set [2] (10 mM COMPOUND 1 in saline) came out at 8.30 mg; in data set [2] (azithromycin, 10 mM in saline), 6.70 mg. Further, the “Amt corr. to mol eq.” value came to 8.30 mg in data set [2] (10 mM COMPOUND 1 in saline) and 6.70 mg in data set [2] (azithromycin, 10 mM in saline). Besides, the “mol. eq. acid” value in data set [2] (10 mM COMPOUND 1 in saline) is recorded as 1.05 mol. eq; in data set [2] (azithromycin, 10 mM in saline) it was 0.70 mol. eq. Further, the End conc. macrolide in data set [2] (COMPOUND 1 in saline) and in data set [2] (azithromycin in saline) was 10.0 mM in each case. Moreover, the pH amounted to 6.8 in data set [3] (macrolide (not named) + acid equivalent of organic acid in saline (0.9% aq. NaCl), 10 mM); 5.5 in data set [3] (setting [4]); 8.0 in data set [3] (setting [5]); 10.0 in data set [3] (setting [6]). Further, the “Visual Score” value in data set [3] (macrolide (not named) + acid equivalent of organic acid in saline, 10 mM) worked out at 4; in data set [3] (setting [4]), 4; in data set [3] (setting [5]), 4; in data set [3] (setting [6]), 2.
